By IC50 is commonly meant the concentration at which inhibition is half-maximal.

The text below walks through data of patent publication US10442796B2, “2,3,5-substituted thiophene compound as protein kinase inhibitor” (KOREA INSTITUTE OF SCIENCE AND TECHNOLOGY, priority 2016, dated 2019).

Each structure is given as a SMILES string. Where a chain is given by its changes, count along the chain named. Where a name gives a salt, the structure may show the parent alone.

Assay in all cases: Growth inhibitory activity against Ba/F3 cell line
Holding throughout (format): cell-based

The subject of test [1] is Parental Ba/F3 cells. The note with it: BaF3; Parental Ba/F3 with mouse IL-3 1 ng/mL; 72 hours; cell titer glo. The protocol:
A Ba/F3 cell line expressing an FLT3 mutation gene was cultured in a culture solution including 90% RPMI, 10% FBS, and an antibiotic (Welgene). 100 uL of the Ba/F3 cell line was put into each of 5,000 wells of a TC-treated 96 well plate (SPL), and then 1 uL of a test compound diluted in dimethylsulfoxide (diluted for each 3 paint from a concentration of 1 mM, total 10 concentrations) was each injected thereinto. Thereafter, the resulting cell lines were incubated in a cell culture incubator for 72 hours. 50 uL of a cell titer glo (Promega) solution was added thereto, the resulting mixture was stored at room temperature for 10 minutes, and then the light emission intensity was measured by using a reader (Envision, PerkinElmer). The light emission intensity was shown as a graph for each final concentration of the test compound, and the GI50 value was obtained by using a Prism 5.0 (GraphPad) software.
A parental Ba/F3 cell line having no FLT3 mutation gene was cultured by using a culture solution supplemented with mouse IL-3 (R&D Systems), such that a final concentration became 1 ng/mL in the culture solution including 90% RPMI, 10% FBS, and an antibiotic (Welgene). The activity was measured by a method which is the same as described above.
A general note: In ATP-based viability assays light output follows the ATP content of the culture.

In test [2] the target is T1, FLT3-ITD-F691L-D835Y Ba/F3 cells (Homo sapiens, UniProt P36888, F691L/D835Y, cells depend on it, form not given).
T1 sequence (P36888 1-993 F691L/D835Y): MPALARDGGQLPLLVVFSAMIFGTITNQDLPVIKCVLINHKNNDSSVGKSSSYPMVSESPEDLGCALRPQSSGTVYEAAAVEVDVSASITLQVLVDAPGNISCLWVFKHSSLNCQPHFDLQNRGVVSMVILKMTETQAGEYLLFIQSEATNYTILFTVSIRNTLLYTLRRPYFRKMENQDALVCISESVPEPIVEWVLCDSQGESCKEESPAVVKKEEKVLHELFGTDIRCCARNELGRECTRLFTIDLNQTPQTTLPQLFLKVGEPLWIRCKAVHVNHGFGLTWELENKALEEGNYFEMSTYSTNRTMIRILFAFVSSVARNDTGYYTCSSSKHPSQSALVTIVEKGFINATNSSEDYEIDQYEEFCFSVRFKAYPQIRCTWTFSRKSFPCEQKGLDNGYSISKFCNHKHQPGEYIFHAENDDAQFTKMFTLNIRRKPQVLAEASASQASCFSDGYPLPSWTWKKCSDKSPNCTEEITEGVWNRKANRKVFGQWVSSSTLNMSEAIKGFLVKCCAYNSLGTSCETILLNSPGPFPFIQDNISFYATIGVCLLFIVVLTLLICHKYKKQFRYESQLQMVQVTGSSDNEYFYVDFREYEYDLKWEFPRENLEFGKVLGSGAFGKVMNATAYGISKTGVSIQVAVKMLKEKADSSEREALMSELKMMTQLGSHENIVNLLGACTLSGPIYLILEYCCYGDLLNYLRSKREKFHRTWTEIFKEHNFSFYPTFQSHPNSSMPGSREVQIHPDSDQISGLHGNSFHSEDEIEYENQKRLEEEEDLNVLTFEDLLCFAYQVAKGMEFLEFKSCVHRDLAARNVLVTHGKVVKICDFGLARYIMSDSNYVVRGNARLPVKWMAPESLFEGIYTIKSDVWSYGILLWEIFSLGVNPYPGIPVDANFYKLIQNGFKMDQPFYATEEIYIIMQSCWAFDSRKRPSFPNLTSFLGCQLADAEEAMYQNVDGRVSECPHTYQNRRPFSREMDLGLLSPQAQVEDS
The note with it: Ba/F3 expressing FLT3-ITD-F691L-D835Y; 72 hours; cell titer glo; read-out: IC50 (uM) FLT3-ITD-F691L-D835Y. Summed up:
(§1)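 Ba/F3 cells carrying FLT3 mutants grown in RPMI with 10% FBS, exposed 72 h to ten 3-fold dilutions of compound starting from 1 mM DMSO stock. Viability read by CellTiter-Glo luminescence; GI50 fitted from signal versus final concentration.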

Test [3] concerns the target T2, FLT3-ITD-F691L Ba/F3 cells (Homo sapiens, UniProt P36888, F691L, cells depend on it, form not given).
T2 sequence (P36888 1-993 F691L): T1 sequence (P36888 1-993 F691L/D835Y) with Y835D
The note with it: Ba/F3 expressing FLT3-ITD-F691L; 72 hours; cell titer glo; read-out: IC50 (uM) FLT3-ITD-F691L. The gist of the method: as §1

For the molecule `NC(=O)Nc1cc(C#Cc2cnn(C3CCOCC3)c2)sc1C(=O)N[C@H]1CCCCNC1` [Example 46, (S)—N-(azepan-3-yl)-5-((1-(tetrahydro-2H-pyran-4-yl)-1H-pyrazol-4-yl)ethynyl)-3-ureidothiophene-2-carboxamide trifluoroacetate], the IC50 in test [1] was 0.3 µM. Also, the figures for the GI50 in test [2] and in test [3] were 0.003 µM and 0.075 µM, respectively.

For `NC(=O)Nc1cc(C#Cc2cccnc2)sc1C(=O)N[C@H]1CCCNC1` [Example 3, (S)—N-(piperidin-3-yl)-5-(pyridin-3-ylethynyl)-3-ureidothiophene-2-carboxamide], in test [1], the IC50 was determined as 6.46 µM. The figures for the GI50 in test [2] and in test [3] were under 0.004 µM and 0.099 µM, respectively.

For `NC(=O)Nc1cc(C#Cc2ccc(F)c(F)c2)sc1C(=O)N[C@H]1CCCNC1` [Example 14, (S)-5-((3,4-difluorophenyl)ethynyl)-N-(piperidin-3-yl)-3-ureidothiophene-2-carboxamide], in test [1], the IC50 came to 0.269 µM. Further, the GI50 in test [2] is under 0.001 µM; in test [3], 0.009 µM.
